Assay results as given in patent publication US7744867B2, “PTPase inhibitors and method of using same” (The Cleveland Clinic Foundation, priority 2001, dated 2010).

Key:
[1] = target: T1, MKP1 (GST fusion protein) (Homo sapiens, UniProt P28562); experiment: In vitro PTPase assay, dephosphorylation of a synthetic phosphotyrosine peptide; assay type: biochemical
T1 construct: made in house; host or cells: E. coli DH5a
Procedure: In vitro PTPase activities were measured using the commercial protein tyrosine phosphatase assay kit (UBI) following established procedure. This assay measures the in vitro dephosphorylation of a synthetic phosphotyrosine peptide (R-R-L-I-E-D-A-E-pY-A-A-R-G). Briefly, 0.01 μg of GST/PTPase fusion protein was incubated in 50 μl of Tris buffer (10 mM Tris, pH 7.4) containing different concentrations of inhibitors or chemicals (0 to 1,000 μg/ml) at 22° C. for 10 minutes, followed by addition of 0.2 mM of the phosphotyrosine peptide and incubation at 22° C. for […]. 100 μl of Malachite Green solution was added and incubated for 5 minutes, and the absorbance at 660 nm was measured after 5 minutes.

[2] = target: T2, intracellular MKP1 in WM9 cells (Homo sapiens, UniProt P28562); experiment: PTPase activity of anti-MKP1 immunocomplexes from WM9 cells; assay type: cell-based; conditions: treated 5 minutes
T2 construct: endogenous in cells; host or cells: WM9 human melanoma cells
Procedure: FIG. 6C. Sodium stibogluconate inactivates intracellular PRL-2 in WM9 human melanoma cells. A. Relative PTPase activities of anti-Flag immunocomplexes from WM9 cells transfected with the control vector (V) or Flag-PRL-2 expression construct and then treated with different amounts of sodium stibogluconate for 5 minutes B. Relative amounts of Flag-PRL-2 in the immunocomplexes as determined by SDS-PAGE/Western blotting. C. Relative PTPase activities of anti-MKP1 immunocomplexes from WM9 cells treated with different amounts of sodium stibogluconate for 5 minutes. Relative amounts of MKP1 in the immunocomplexes as determined by SDS-PAGE/Western blotting.
Flag-PRL-2 protein was detected in anti-Flag immunocomplexes from WM9 cells tranfected with an expression construct of Flag-PRL-2 but not in those from vector transfectants expected.

[3] = system: 5637 cells (Blader carcinoma); experiment: Growth inhibition of human tumor cell lines; assay type: cell-based; conditions: SS 12.5 μg/ml, IFNα 1,000 u/ml, alone or combined

T2 sequence (P28562 whole entry): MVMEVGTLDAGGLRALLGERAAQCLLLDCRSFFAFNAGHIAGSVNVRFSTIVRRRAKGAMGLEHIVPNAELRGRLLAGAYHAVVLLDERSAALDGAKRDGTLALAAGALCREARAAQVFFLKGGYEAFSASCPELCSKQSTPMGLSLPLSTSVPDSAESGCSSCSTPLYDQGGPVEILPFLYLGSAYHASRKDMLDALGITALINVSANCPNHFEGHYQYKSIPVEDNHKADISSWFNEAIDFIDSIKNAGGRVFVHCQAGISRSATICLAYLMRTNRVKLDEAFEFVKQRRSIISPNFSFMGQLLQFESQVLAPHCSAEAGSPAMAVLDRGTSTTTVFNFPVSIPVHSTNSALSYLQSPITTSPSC
T1 sequence (P28562 whole entry, species assumed, the tested form may be a part): as the sequence (P28562 whole entry) above

| Compound | inhibitory activity against MKP1 [1] | effect on MKP1 PTPase activity in WM9 cells [2] | % of growth inhibition by day 6 (±s.d.) [3] |
| --- | --- | --- | --- |
| O.O.O.O.O.O.O.O.O.O=C([O-])[C@@H]1[O][Sb]2([O-])([O][Sb]34([OH])[O][C@H]([C@H](O)CO)[C@H]([O]3)[C@H](C(=O)[O-])[O]4)[O][C@H]([C@H](O)CO)[C@@H]1[O]2.[Na+].[Na+].[Na+] [sodium stibogluconate] | no obvious inhibitory activity | no marked effects | – |
| IFNα | – | – | 28 (17) % |
